≈ marks a conversion by molar mass, not a printed value. Each block holds one compound with its values, some of them ahead of it.
Assays:
MCF-7 [1] = experiment: MTT reduction assay, cytotoxicity; assay type: cell-based, human; settings: for IC50: Homo sapiens, MCF7
Experimental: Compounds were prepared at a stock solution of 10.0 mg/mL in DMSO and the extract at 20.0 mg/mL in DMSO. […] Cytotoxicity was evaluated by the MTT reduction assay, which determines the effect of treatment with an exogenously added agent on the viability of the cell population. […] Further, cells were incubated with the compounds for 72 h at 37 °C in a 5% CO2 incubator. The MTT reagent (Sigma-Aldrich, Darmstadt, Germany; 1 mg/mL in phosphate buffered saline (PBS); 100 μL/well) was added during the last 4 h of incubation. The formazan crystals formed were dissolved by adding 0.1 M HCl in 2-propanol (100 μL/well) and absorption was measured using an ELISA reader (Denley WeScan, Finland) at 545 nm with reference filter set at 690 nm. All cultures were set in triplicate, whereas cells incubated in complete medium or in medium containing the equivalent amount of DMSO, as well as cells incubated in the presence of doxorubicin (Sigma-Aldrich) were used as negative and positive controls, respectively.
All experiments were performed at least three times.

[2] = tested on: human peripheral blood mononuclear cells (PBMCs); experiment: Cytotoxic effect against PBMCs, annexin V/PI flow cytometry; assay type: cell-based; settings: 24 h
Experimental: (§1) MCF-7, SKBR3 and HCT-116 cells were incubated with compound 6 and analyzed with flow cytometry following staining with annexin V and propidium iodide (PI). […] Cells were detached with 2 mM EDTA in Dulbecco’s PBS (DPBS), harvested, centrifuged in cold PBS (1500 rpm; 5 min), and stained with the Annexin V-FITC Apoptosis Detection Kit (BioLegend, Fell, Germany; cat# 640914), according to the manufacturers’ instructions. In brief, cells were resuspended in binding buffer, then annexin V-FITC (5 μL) and PI (10 μL; 0.03 μg/sample) were added, mixed, and incubated with the cells for 15 min in the dark at room temperature. The volume was adjusted to 500 μL with binding buffer and the cell suspension was immediately analyzed in a FACSCanto II (BD Biosciences, San Diego, CA, USA) using FACSDiva software (V7, BD Biosciences).
Compound 6 was additionally assessed for its cytotoxicity against human peripheral blood mononuclear cells (PBMCs) isolated from healthy blood donors’ peripheral blood as previously described. Prior to blood draw, individuals gave their informed consent according to the regulations approved by the 2nd Peripheral Blood Transfusion Unit and Hemophiliac Centre, “Laikon” General Hospital Institutional Review Board, Athens, Greece. PBMCs were seeded in 24-well plates (5 × 10^5/mL; 2 mL/well) and exposed to 2 concentrations of compound 6: 80 μg/mL and 40 μg/mL. PBMCs were collected, stained as described in 2.5 and analyzed by flow cytometry.

HCT-116 [3] = experiment: MTT reduction assay, cytotoxicity; assay type: cell-based; settings: Homo sapiens
Experimental: (§2) The cytotoxic activity of the compounds, as well as of the initial methanol extract, were tested against three human cancer cell lines: MCF-7 (breast; estrogen receptor positive (ER+), progesterone receptor (PR)+, and HER2 negative (-)), SKBR3 (breast; ER-, PR-, and HER2+), and HCT-116 (colon). All cell lines were maintained in RPMI-1640, supplemented with 10% heat-inactivated fetal bovine serum (FBS), 10 mM Hepes, 10 U/mL penicillin, 10 U/mL streptomycin, and […] (all from Lonza, Cologne, Germany) (thereafter referred to as complete medium) at 37 °C in a humidified 5% CO2 incubator.
(§3) Compounds were prepared at a stock solution of 10.0 mg/mL in DMSO and the extract at 20.0 mg/mL in DMSO. Prior to their use, they were diluted in plain RPMI-1640. Cytotoxicity was evaluated by the MTT reduction assay, which determines the effect of treatment with an exogenously added agent on the viability of the cell population. Briefly, cells were plated in 96-well plates (Greiner Bio-One GmbH, Frickenhausen, Germany; 5 × 10^3 cells/well) and incubated at 5% CO2 and 95% air at 37 °C for 24 h, in order to adhere. Further, cells were incubated with the compounds for 72 h at 37 °C in a 5% CO2 incubator. The MTT reagent (Sigma-Aldrich, Darmstadt, Germany; 1 mg/mL in phosphate buffered saline (PBS); 100 μL/well) was added during the last 4 h of incubation. The formazan crystals formed were dissolved by adding 0.1 M HCl in 2-propanol (100 μL/well) and absorption was measured using an ELISA reader (Denley WeScan, Finland) at 545 nm with reference filter set at 690 nm. All cultures were set in triplicate, whereas cells incubated in complete medium or in medium containing the equivalent amount of DMSO, as well as cells incubated in the presence of doxorubicin (Sigma-Aldrich) were used as negative and positive controls, respectively. The half maximal inhibitory concentration (IC50) was calculated according to the formula: 100(A0 − A)/A0 = 50, where A and A0 are optical densities of wells exposed to the compounds and control wells, respectively.
(§4) The compounds were tested at a concentration range of 200.0 to 6.25 μg/mL and the extract at 750.0 to 1.25 μg/mL. […] All experiments were performed at least three times.

SKBR3 [4] = experiment: MTT reduction assay, cytotoxicity; assay type: cell-based; settings: Homo sapiens, SK-BR-3
Experimental: as §2, §3, §4

[5] = tested on: MCF-7, SKBR3, and HCT-116 cells; experiment: Annexin V/PI flow cytometry, stated for all cell lines together; assay type: cell-based, human; settings: 72 h
Experimental: as §1

HCT-116 [6] = experiment: Annexin V/PI flow cytometry analysis; assay type: cell-based, human; settings: HCT-116, 80 μg/mL, 72 h
Experimental: as §1

MCF-7 [7] = experiment: Annexin V/PI flow cytometry analysis; assay type: cell-based, human; settings: MCF-7, 80 μg/mL, 72 h
Experimental: as §1

SKBR3 [8] = experiment: Annexin V/PI flow cytometry analysis; assay type: cell-based, human; settings: SKBR3, 80 μg/mL, 72 h
Experimental: as §1

[9] = tested on: MCF-7, SKBR3, and HCT-116; experiment: MTT reduction assay, stated for all cell lines together; assay type: cell-based; settings: Homo sapiens; all cell lines tested, positive control
Experimental: as §2
Compounds were prepared at a stock solution of 10.0 mg/mL in DMSO and the extract at 20.0 mg/mL in DMSO. Prior to their use, they were diluted in plain RPMI-1640. Cytotoxicity was evaluated by the MTT reduction assay, which determines the effect of treatment with an exogenously added agent on the viability of the cell population. […] The formazan crystals formed were dissolved by adding 0.1 M HCl in 2-propanol (100 μL/well) and absorption was measured using an ELISA reader (Denley WeScan, Finland) at 545 nm with reference filter set at 690 nm. […] The half maximal inhibitory concentration (IC50) was calculated according to the formula: 100(A0 − A)/A0 = 50, where A and A0 are optical densities of wells exposed to the compounds and control wells, respectively. […]

[10] = MCF-7, 72 h exposure, mean ± SD of three experiments
[11] = 40 μg/mL, range over the cell lines

Structure (SMILES): O=C(O[C@H](Cc1ccc(O)c(O)c1)C(=O)O)C1=Cc2cc(O)c(O)cc2[C@@H](c2ccc(O)c(O)c2)[C@@H]1C(=O)O[C@H](Cc1ccc(O)c(O)c1)C(=O)O [Compound 6, (-)-rabdosiin]
- IC50 (MCF-7 [1]; [10]): 75 ± 2.12 µg/mL
- early apoptotic PBMCs ([2]; donor 1, 40 μg/mL): 1.8%
- late apoptotic/necrotic PBMCs ([2]; donor 1, 40 μg/mL): 1.7%
- early apoptotic PBMCs ([2]; donor 1, 80 μg/mL): 2.8%
- late apoptotic/necrotic PBMCs ([2]; donor 1, 80 μg/mL): 3.0%
- early apoptotic PBMCs ([2]; donor 2, 40 μg/mL): 2.1%
- late apoptotic/necrotic PBMCs ([2]; donor 2, 40 μg/mL): 1.9%
- early apoptotic PBMCs ([2]; donor 2, 80 μg/mL): 4.3%
- late apoptotic/necrotic PBMCs ([2]; donor 2, 80 μg/mL): 3.1%
- IC50 (HCT-116 [3]; HCT-116, 72 h exposure, mean ± SD of three experiments): 84 ± 7.78 µg/mL
- IC50 (SKBR3 [4]; SKBR3, 72 h exposure, mean ± SD of three experiments): 83 ± 3.54 µg/mL
- early apoptotic cells [5, 11]: 13.5–20.1%
- late apoptotic/necrotic cells [5, 11]: 3.9–6.5%
- cells driven to apoptosis ([5]; 80 μg/mL, all cell lines): ca. 50%
- early apoptotic cells (annexin V+) (HCT-116 [6]): 43.1%
- late apoptotic/necrotic cells (annexin V+/PI+) (HCT-116 [6]): 10.2%
- early apoptotic cells (annexin V+) (MCF-7 [7]): 44.9%
- late apoptotic/necrotic cells (annexin V+/PI+) (MCF-7 [7]): 12.3%
- early apoptotic cells (annexin V+) (SKBR3 [8]): 40.1%
- late apoptotic/necrotic cells (annexin V+/PI+) (SKBR3 [8]): 9.1%

Structure (SMILES): O=C(O[C@H](Cc1ccc(O)c(O)c1)C(=O)O)[C@H]1[C@H](C(=O)O[C@H](Cc2ccc(O)c(O)c2)C(=O)O)[C@H](c2ccc(O)c(O)c2)[C@H]1c1ccc(O)c(O)c1 [Compound 7, shimobashiric acid C]
- IC50 ± SD (MCF-7 [1]; [10]): 142 ± 3.54 µg/mL (≈ 197 µM)

Structure (SMILES): O=C(O)[C@H]1O[C@@H](Oc2cc(O)c3c(=O)cc(-c4ccc(O)c(O)c4)oc3c2)[C@H](O)[C@@H](O)[C@@H]1O [Compound 9, luteolin 7-O-β-D-glucuronide]
- IC50 ± SD (MCF-7 [1]; [10]): 141 ± 1.41 µg/mL (≈ 305 µM)

Structure (SMILES): O=C(O)/C=C/c1ccc(O[C@@H]2O[C@H](CO)[C@@H](O)[C@H](O)[C@H]2O)cc1 [Compound 11, (E)-p-coumaroyl 4-O-β-D-glucoside]
- IC50 ± SD (MCF-7 [1]; [10]): 139 ± 7.78 µg/mL (≈ 426 µM)

Structure (SMILES): O=C(O)C(O)Cc1ccc(O)c(O)c1 (centres unmarked) [Compound 12, 3-(3,4-dihydroxyphenyl) lactic acid]
- IC50 (MCF-7 [1]; [10]): 140 ± 12 µg/mL

Structure (SMILES): O=C(O)c1ccc(O)c(O)c1 [Compound 13, protocatechuic acid]
- IC50 (MCF-7 [1]; [10]): 140 ± 4.95 µg/mL

- IC50 [9]: ≤ 200 nM
Structure (SMILES): COc1cccc2c1C(=O)c1c(O)c3c(c(O)c1C2=O)C[C@@](O)(C(=O)CO)C[C@@H]3O[C@H]1C[C@H](N)[C@H](O)[C@H](C)O1 [Doxorubicin, reference compound]
- IC50 (MCF-7 [1]; MCF-7, positive control): 92 ± 7 nM
- IC50 (HCT-116 [3]; HCT-116, positive control): 192 ± 29 nM
- IC50 (SKBR3 [4]; SKBR3, positive control): 95 ± 8 nM
